We go through three molecules from article PMC2561905 (Biochemistry, 2008).

Experiment [1] deals with LLhP. Conditions: read-out: Operator capture by LLhP and variants (× 10^-7 M hypoxanthine), lacO^1; [co-repressor]mid; SD, n = 3.
Experiment [2] has as its system I48S. The conditions noted are these: read-out: Operator capture by LLhP and variants (× 10^-7 M hypoxanthine), lacO^1; [co-repressor]mid; SD, n = 3.
Experiment [3] has as its system I48V. Conditions: read-out: Operator capture by LLhP and variants (× 10^-7 M hypoxanthine), lacO^1; [co-repressor]mid; SD, n = 3.
Experiment [4] has as its system Q55T. Conditions: read-out: Operator capture by LLhP and variants (× 10^-7 M hypoxanthine), lacO^1; [co-repressor]mid; SD, n = 3.
Experiment [5] relates to Q55V. The conditions noted are these: read-out: Operator capture by LLhP and variants (× 10^-7 M hypoxanthine), lacO^1; [co-repressor]mid; SD, n = 3.
Experiment [6] deals with S61C. The conditions noted are these: read-out: Operator capture by LLhP and variants (× 10^-7 M hypoxanthine), lacO^1; [co-repressor]mid; SD, n = 3.
Experiment [7] concerns S61M. Conditions: read-out: Operator capture by LLhP and variants (× 10^-7 M hypoxanthine), lacO^1; [co-repressor]mid; SD, n = 3.
The subject of experiment [8] is LLhP. The conditions noted are these: read-out: Operator capture by LLhP and variants (× 10^-7 M hypoxanthine), lacO^sym; [co-repressor]mid; SD, n = 3.
The subject of experiment [9] is I48S. The conditions noted are these: read-out: Operator capture by LLhP and variants (× 10^-7 M hypoxanthine), lacO^sym; [co-repressor]mid; SD, n = 3.
For experiment [10], the system named is I48V. Conditions: read-out: Operator capture by LLhP and variants (× 10^-7 M hypoxanthine), lacO^sym; [co-repressor]mid; SD, n = 3.
Experiment [11] relates to Q55T. Conditions: read-out: Operator capture by LLhP and variants (× 10^-7 M hypoxanthine), lacO^sym; [co-repressor]mid; SD, n = 3.
For experiment [12], the system named is Q55V. Conditions: read-out: Operator capture by LLhP and variants (× 10^-7 M hypoxanthine), lacO^sym; [co-repressor]mid; SD, n = 3.
Experiment [13] has as its system LLhP. Conditions: read-out: Operator capture by LLhP and variants (× 10^-7 M hypoxanthine), lacO^disC; [co-repressor]mid; SD, n = 3.
The subject of experiment [14] is I48S. Conditions: read-out: Operator capture by LLhP and variants (× 10^-7 M hypoxanthine), lacO^disC; [co-repressor]mid; SD, n = 3.
In experiment [15] the test system is I48V. The conditions noted are these: read-out: Operator capture by LLhP and variants (× 10^-7 M hypoxanthine), lacO^disC; [co-repressor]mid; SD, n = 3.
For experiment [16], the system named is Q55T. Conditions: read-out: Operator capture by LLhP and variants (× 10^-7 M hypoxanthine), lacO^disC; [co-repressor]mid; SD, n = 3.
Experiment [17] has as its system Q55V. The conditions noted are these: read-out: Operator capture by LLhP and variants (× 10^-7 M hypoxanthine), lacO^disC; [co-repressor]mid; SD, n = 3.
Experiment [18] relates to S61C. The conditions noted are these: read-out: Operator capture by LLhP and variants (× 10^-7 M hypoxanthine), lacO^disC; [co-repressor]mid; SD, n = 3.
Experiment [19] relates to S61M. Conditions: read-out: Operator capture by LLhP and variants (× 10^-7 M hypoxanthine), lacO^disC; [co-repressor]mid; SD, n = 3.
The subject of experiment [20] is lacO^sym operator DNA. Conditions: LacI without inducer; cited from earlier work.
Experiment [21] concerns lacO^disC operator DNA. In words: Nitrocellulose filter binding, DNA-binding affinity for lacO^disC. Conditions: LLhP+HX compared with LacI without inducer.
The test system of experiment [22] is lacO^1 operator DNA. In words: Operator capture experiment with lacO^1. It is filed as binding, E. coli. Conditions: curves super-imposable for three different operator sequences.

Where two headings read alike, the source gives them in different places.

As for `O=c1[nH]cnc2[nH]cnc12` [hypoxanthine, hypoxanthine (HX)], the EC50 in experiment [1] is 410 ± 70 nM; in [2], 950 ± 70 nM; in experiment [3], 880 ± 60 nM; in [4], 1000 ± 80 nM; in [5], 1000 ± 130 nM; in experiment [6], 4700 ± 410 nM. Further, the EC50 in experiment [7] is 5900 ± 340 nM; in [8], 550 ± 230 nM; in experiment [9], 670 ± 60 nM; in [10] it was 570 ± 50 nM; in experiment [11], 430 ± 40 nM; in [12] it was 850 ± 60 nM. Also, the EC50 in experiment [13] is 370 ± 80 nM; in experiment [14] it was 1600 ± 180 nM; in experiment [15] it was 3300 ± 160 nM; in [16], 2100 ± 160 nM; in experiment [17] it was 2200 ± 80 nM; in [18], 8000 ± 270 nM. The EC50 in [19] was found to be 11700 ± 1200 nM.

B1: LacI: lactose repressor protein, naturally-occurring LacI/GalR homologue used for comparison (protein, UniProt P03023 1-360, looked up)
Lactose operon repressor: MKPVTLYDVAEYAGVSYQTVSRVVNQASHVSAKTREKVEAAMAELNYIPNRVAQQLAGKQSLLIGVATSSLALHAPSQIVAAIKSRADQLGASVVVSMVERSGVEACKAAVHNLLAQRVSGLIINYPLDDQDAIAVEAACTNVPALFLDVSDQTPINSIIFSHEDGTRLGVEHLVALGHQQIALLAGPLSSVSARLRLAGWHKYLTRNQIQPIAEREGDWSAMSGFQQTMQMLNEGIVPTAMLVANDQMALGAMRAITESGLRVGADISVVGYDDTEDSSCYIPPLTTIKQDFRLLGQTSVDRLLQLSQGQAVKGNQLLPVSLVKRKTTLAPNTQTASPRALADSLMQLARQVSRLESGQ
For B1, in [20], the “Tighter binding of lacO^sym than lacO^1” value was about 10 fold.

B2: LLhP: chimeric repressor: LacI DNA-binding domain, LacI linker and PurR regulatory domain; homodimer (protein)
chain: MKPVTLYDVAEYAGVSYQTVSRVVNQASHVSAKTREKVEAAMAELNYIPNRVAQQLAGKQSLLIGVATSSLALHAPSQIVAAIKSRADQLGASVVVSMVERSGVEACKAAVHNLLAQRVSGLIINYPLDDQDAIAVEAACTNVPALFLDVSDQTPINSIIFSHEDGTRLGVEHLVALGHQQIALLAGPLSSVSARLRLAGWHKYLTRNQIQPIAEREGDWSAMSGFQQTMQMLNEGIVPTAMLVANDQMALGAMRAITESGLRVGADISVVGYDDTEDSSCYIPPLTTIKQDFRLLGQTSVDRLLQLSQGQAVKGNQLLPVSLVKRKTTLAPNATIKDVAKRANVSTTTVSHVINKTRFVAEETRNAVWAAIKELHYSPSAVARSLKVNHTKSIGLLATSSEAAYFAEIIEAVEKNCFQKGYTLILGNAWNNLEKQRAYLSMMAQKRVDGLLVMCSEYPEPLLAMLEEYRHIPMVVMDWGEAKADFTDAVIDNAFEGGYMAGRYLIERGHREIGVIPGPLERNTGAGRLAGFMKAMEEAMIKVPESWIVQGDFEPESGYRAMQQILSQPHRPTAVFCGGDIMAMGALCAADEMGLRVPQDVSLIGYDNVRNARYFTPALTTIHQPKDSLGETAFNMLLDRIVNKREEPQSIEVHPRLIERRSVADGPFRDYRR
As to B2, the “Tighter binding of lacO^disC than LacI” value in [21] is about 30 fold. In [22], the Operator capture mid-point entry is listed as “around 4.4 × 10 ^−7 M hypoxanthine”.
